Where a name gives a salt, the structure may show the parent alone.
Tested on: T1, primary mouse cortical neurons
T1 construct: primary cortical neurons, DIV 10
Test: cells
Set-up: Protection from NMDA-induced (30 uM, 10 min) neuronal death; Hoechst nuclear morphology by automated microscopy
Details: Cortical neurone, 20 h, read-out: % inhibition, inhibition of NMDA-induced cell death (protection score), 30 min pre-treatment
Procedure, shortened: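 On DIV 10, primary mouse cortical neurons were given compound at 10 μM for 30 min at 37 °C, then 30 μM NMDA for 10 min, washed, and kept 20 h with compound. Dead cells were scored by nuclear morphology, and % protection was derived from survival relative to vehicle + NMDA and untreated controls.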

SMILES: C[C@H]([C@H](O)CCC(C)(C)O)[C@H]1CC[C@@]2(O)C3=CC(=O)[C@@H]4C[C@@H](O)[C@@H](O)C[C@]4(C)[C@H]3CC[C@]12C [Ecdysone]
- inhibition at 10 µM: 0.187%

SMILES: Clc1ccc(COC(Cn2ccnc2)c2ccc(Cl)cc2Cl)cc1 (stereo not drawn) [Econazole nitrate (Spectazole)]
- inhibition at 10 µM: -2.25%

SMILES: Cc1ccc(-n2[nH]c(C)c(N=Nc3cccc(-c4cccc(C(=O)O)c4)c3O)c2=O)cc1C [Eltrombopag (SB-497115-GR)]
- inhibition at 10 µM: 93.9%

SMILES: COc1cc2c(cc1Cc1cccc(Cl)c1F)c(=O)c(C(=O)O)cn2[C@H](CO)C(C)C [Elvitegravir (GS-9137)]
- inhibition at 10 µM: 89.3%

SMILES: Cc1cc(O)c2c(c1)C(=O)c1cc(O)cc(O)c1C2=O [Emodin]
- inhibition at 10 µM: -4.08%

SMILES: Nc1nc(=O)n([C@@H]2CS[C@H](CO)O2)cc1F [Emtricitabine (Emtriva)]
- inhibition at 10 µM: 14.4%

SMILES: CCOC(=O)[C@H](CCc1ccccc1)N[C@@H](C)C(=O)N1CCC[C@H]1C(=O)O [Enalapril maleate (Vasotec)]
- inhibition at 10 µM: 54.5%

SMILES: C[C@H](N[C@@H](CCc1ccccc1)C(=O)O)C(=O)N1CCC[C@H]1C(=O)O [Enalaprilat dihydrate]
- inhibition at 10 µM: -4.34%

SMILES: CC1(C)[C@@H](O)CC[C@]2(C)[C@H]3C(=O)C=C4[C@@H]5C[C@@](C)(C(=O)O)CC[C@]5(C)CC[C@@]4(C)[C@]3(C)CC[C@@H]12 [Enoxolone (Glycyrrhetin)]
- inhibition at 10 µM: -0.00685%

SMILES: C=C1[C@H](CO)[C@@H](O)C[C@@H]1n1cnc2c(=O)[nH]c(N)nc21 [Entecavir hydrate]
- inhibition at 10 µM: 3.22%

SMILES: CNC[C@H](O)c1ccc(O)c(O)c1 [Epinephrine bitartrate (Adrenalinium)]
- inhibition at 10 µM: -0.43%

SMILES: COC(=O)[C@@H]1CC2=CC(=O)CC[C@]2(C)[C@@]23O[C@@H]2C[C@@]2(C)[C@@H](CC[C@@]24CCC(=O)O4)[C@H]13 [Eplerenone]
- inhibition at 10 µM: 6.59%

SMILES: O=C(O)CSCC(=O)NC1CCSC1=O (stereo not drawn) [Erdosteine]
- inhibition at 10 µM: -0.838%

SMILES: CC(C)[C@@H](C)/C=C/[C@@H](C)[C@H]1CC[C@H]2C3=CC=C4C[C@@H](O)CC[C@]4(C)[C@H]3CC[C@]12C [Ergosterol]
- inhibition at 10 µM: -1.47%

SMILES: C#Cc1cccc(Nc2ncnc3cc(OCCOC)c(OCCOC)cc23)c1 [Erlotinib HCl]
- inhibition at 10 µM: 22.9%

SMILES: CC[C@H]1OC(=O)[C@H](C)[C@@H](O[C@H]2C[C@@](C)(OC)[C@@H](O)[C@H](C)O2)[C@H](C)[C@@H](O[C@@H]2O[C@H](C)C[C@H](N(C)C)[C@H]2O)[C@](C)(O)C[C@@H](C)C(=O)[C@H](C)[C@@H](O)[C@]1(C)O [Erythromycin (E-Mycin)]
- inhibition at 10 µM: 29.4%

SMILES: COc1ccc2[nH]c([S@@+]([O-])Cc3ncc(C)c(OC)c3C)nc2c1 [Esomeprazole sodium (Nexium)]
- inhibition at 10 µM: 21.3%

SMILES: C[C@]12CC[C@@H]3c4ccc(O)cc4CC[C@H]3[C@@H]1CC[C@@H]2O [Estradiol]
- inhibition at 10 µM: 4.78%

SMILES: C[C@]12CC[C@@H]3c4ccc(O)cc4CC[C@H]3[C@@H]1CCC2=O [Estrone]
- inhibition at 10 µM: -2.18%

SMILES: C#C[C@]1(O)CC[C@H]2[C@@H]3CCc4cc(O)ccc4[C@H]3CC[C@@]21C [Ethinyl estradiol]
- inhibition at 10 µM: 57.3%

SMILES: CCc1cc(C(N)=S)ccn1 [Ethionamide]
- inhibition at 10 µM: 27.7%

SMILES: CCc1cccc2c3c([nH]c12)C(CC)(CC(=O)O)OCC3 (stereo not drawn) [Etodolac (Lodine)]
- inhibition at 10 µM: 9.68%

SMILES: COc1cc([C@@H]2c3cc4c(cc3[C@@H](O[C@@H]3O[C@@H]5CO[C@@H](C)O[C@H]5[C@H](O)[C@H]3O)[C@H]3COC(=O)[C@H]23)OCO4)cc(OC)c1O [Etoposide (VP-16)]
- inhibition at 10 µM: -11.8%

SMILES: O=C(c1ccc(OCCN2CCCCC2)cc1)c1c(-c2ccc(O)cc2)sc2cc(O)ccc12 [Evista (Raloxifene Hydrochloride)]
- inhibition at 10 µM: -19.3%

SMILES: CN1c2ccccc2C(=O)N2CCc3c([nH]c4ccccc34)[C@H]21 [Evodiamine (Isoevodiamine)]
- inhibition at 10 µM: 0.0207%

SMILES: C=C1C[C@@H]2[C@H](CC[C@]3(C)C(=O)CC[C@@H]23)[C@@]2(C)C=CC(=O)C=C12 [Exemestane]
- inhibition at 10 µM: -1.67%

SMILES: O=C1[C@H](CC[C@H](O)c2ccc(F)cc2)[C@@H](c2ccc(O)cc2)N1c1ccc(F)cc1 [Ezetimibe (Zetia)]
- inhibition at 10 µM: 21.4%

SMILES: Cc1nc(-c2ccc(OCC(C)C)c(C#N)c2)sc1C(=O)O [Febuxostat (Uloric)]
- inhibition at 10 µM: -0.186%

SMILES: CCOC(=O)C1=C(C)NC(C)=C(C(=O)OC)C1c1cccc(Cl)c1Cl (stereo not drawn) [Felodipine (Plendil)]
- inhibition at 10 µM: -1.75%

SMILES: COC(=O)Nc1nc2cc(Sc3ccccc3)ccc2[nH]1 [Fenbendazole (Panacur)]
- inhibition at 10 µM: -8.52%

SMILES: CC(C(=O)O)c1cccc(Oc2ccccc2)c1 (stereo not drawn) [Fenoprofen calcium]
- inhibition at 10 µM: 1.38%

SMILES: CC(C)C(=O)Oc1ccc(CO)cc1[C@H](CCN(C(C)C)C(C)C)c1ccccc1 [Fesoterodine fumarate (Toviaz)]
- inhibition at 10 µM: -0.933%

SMILES: CC(C)(C)NC(=O)[C@H]1CC[C@H]2[C@@H]3CC[C@H]4NC(=O)C=C[C@]4(C)[C@H]3CC[C@]12C [Finasteride]
- inhibition at 10 µM: 59.6%

SMILES: O=c1c(O)c(-c2ccc(O)c(O)c2)oc2cc(O)ccc12 [Fisetin (Fustel)]
- inhibition at 10 µM: -2.5%

SMILES: CN1CCN(c2c(F)cc3c(=O)c(C(=O)O)cn(CCF)c3c2F)CC1 [Fleroxacin (Quinodis)]
- inhibition at 10 µM: -8.01%

SMILES: O=c1[nH]c(=O)n([C@H]2C[C@H](O)[C@@H](CO)O2)cc1F [Floxuridine]
- inhibition at 10 µM: -8.07%

SMILES: OC(Cn1cncn1)(Cn1cncn1)c1ccc(F)cc1F [Fluconazole]
- inhibition at 10 µM: 6.24%

SMILES: Nc1nc(=O)[nH]cc1F [Flucytosine (Ancobon)]
- inhibition at 10 µM: 3.84%

SMILES: Nc1nc(F)nc2c1ncn2[C@@H]1O[C@H](CO)[C@@H](O)[C@@H]1O [Fludarabine (Fludara)]
- inhibition at 10 µM: 16.2%

SMILES: Nc1nc(F)nc2c1ncn2[C@@H]1O[C@H](COP(=O)(O)O)[C@@H](O)[C@@H]1O [Fludarabine Phosphate (Fludara)]
- inhibition at 10 µM: -10.8%

SMILES: CCOC(=O)c1ncn2c1CN(C)C(=O)c1cc(F)ccc1-2 [Flumazenil]
- inhibition at 10 µM: -13.8%

SMILES: CC(=O)OCC(=O)[C@@]12OC(C)(C)O[C@@H]1C[C@H]1[C@@H]3C[C@H](F)C4=CC(=O)C=C[C@]4(C)[C@@]3(F)[C@@H](O)C[C@@]12C [Fluocinonide (Vanos)]
- inhibition at 10 µM: -1.57%

SMILES: CNCCC(Oc1ccc(C(F)(F)F)cc1)c1ccccc1 (stereo not drawn) [Fluoxetine HCl]
- inhibition at 10 µM: -11.1%

SMILES: CC(C(=O)O)c1ccc(-c2ccccc2)c(F)c1 (stereo not drawn) [Flurbiprofen (Ansaid)]
- inhibition at 10 µM: 14%

SMILES: COc1ccc(-c2coc3cc(O)ccc3c2=O)cc1 [Formononetin (Formononetol)]
- inhibition at 10 µM: -0.533%

SMILES: N[C@@H](CSCCCO)C(=O)O [Fudosteine]
- inhibition at 10 µM: 7.72%

SMILES: C[C@]12CC[C@@H]3c4ccc(O)cc4C[C@@H](CCCCCCCCC[S+]([O-])CCCC(F)(F)C(F)(F)F)[C@H]3[C@@H]1CC[C@@H]2O (stereo partly drawn) [Fulvestrant (Faslodex)]
- inhibition at 10 µM: -2.64%

SMILES: COc1cc(/C=C/C(=O)O)ccc1O [Fumalic acid (Ferulic acid)]
- inhibition at 10 µM: -0.686%

SMILES: NS(=O)(=O)c1cc(C(=O)O)c(NCc2ccco2)cc1Cl [Furosemide (Lasix)]
- inhibition at 10 µM: 32.1%

SMILES: CC[N+](CC)(CC)CCOc1cccc(OCC[N+](CC)(CC)CC)c1OCC[N+](CC)(CC)CC [Gallamine triethiodide (Flaxedil)]
- inhibition at 10 µM: -8.46%

SMILES: CC(C)=CCC[C@]1(C)C=Cc2c(O)c3c(c(CC=C(C)C)c2O1)O[C@]12C(=C[C@@H]4C[C@H]1C(C)(C)O[C@@]2(C/C=C(/C)C(=O)O)C4=O)C3=O [Gambogic Acid]
- inhibition at 10 µM: 14.8%

SMILES: OCc1ccc(O[C@@H]2O[C@H](CO)[C@@H](O)[C@H](O)[C@H]2O)cc1 [Gastrodin(Gastrodine)]
- inhibition at 10 µM: 3.84%

SMILES: COc1c(N2CCNC(C)C2)c(F)cc2c(=O)c(C(=O)O)cn(C3CC3)c12 (stereo not drawn) [Gatifloxacin]
- inhibition at 10 µM: -10.3%

SMILES: Nc1ccn([C@@H]2O[C@H](CO)[C@@H](O)C2(F)F)c(=O)n1 [Gemcitabine HCl (Gemzar)]
- inhibition at 10 µM: -9.76%

SMILES: Cc1ccc(C)c(OCCCC(C)(C)C(=O)O)c1 [Gemfibrozil (Lopid)]
- inhibition at 10 µM: 2.6%

SMILES: C#C[C@]1(O)C=C[C@H]2[C@@H]3CCC4=CC(=O)CC[C@@H]4[C@H]3CC[C@@]21CC [Gestodene]
- inhibition at 10 µM: -1.48%

SMILES: CCC1=C(C)CN(C(=O)NCCc2ccc(S(=O)(=O)NC(=O)N[C@H]3CC[C@H](C)CC3)cc2)C1=O [Glimepiride]
- inhibition at 10 µM: -11.4%

SMILES: Cc1cnc(C(=O)NCCc2ccc(S(=O)(=O)NC(=O)NC3CCCCC3)cc2)cn1 [Glipizide (Glucotrol)]
- inhibition at 10 µM: 9.36%

SMILES: COc1ccc(Cl)cc1C(=O)NCCc1ccc(S(=O)(=O)NC(=O)NC2CCCCC2)cc1 [Glyburide (Diabeta)]
- inhibition at 10 µM: 0.906%

SMILES: Cc1cc2c(C(C)C)c(O)c(O)c(C=O)c2c(O)c1-c1c(C)cc2c(C(C)C)c(O)c(O)c(C=O)c2c1O [Gossypol]
- inhibition at 10 µM: -2.2%

SMILES: CN(C)Cc1c[nH]c2ccccc12 [Gramine]
- inhibition at 10 µM: -3.83%

SMILES: COc1ccccc1OCC(O)CO (stereo not drawn) [Guaifenesin (Guaiphenesin)]
- inhibition at 10 µM: 13.1%

SMILES: Nc1nc2c(ncn2[C@@H]2O[C@H](CO)[C@@H](O)[C@H]2O)c(=O)[nH]1 [Guanosine]
- inhibition at 10 µM: -1.96%

SMILES: O=C(CCCN1CCC(O)(c2ccc(Cl)cc2)CC1)c1ccc(F)cc1 [Haloperidol (Haldol)]
- inhibition at 10 µM: 65%

SMILES: Oc1cc2c(cc1O)[C@@H]1c3ccc(O)c(O)c3OC[C@]1(O)C2 [Hematoxylin (Hydroxybrazilin)]
- inhibition at 10 µM: 1.27%

SMILES: COc1ccc([C@@H]2CC(=O)c3c(O)cc(O)cc3O2)cc1O [Hesperetin]
- inhibition at 10 µM: -3.04%

SMILES: COc1ccc([C@@H]2CC(=O)c3c(O)cc(O[C@@H]4O[C@H](CO[C@@H]5O[C@@H](C)[C@H](O)[C@@H](O)[C@H]5O)[C@@H](O)[C@H](O)[C@H]4O)cc3O2)cc1O [Hesperidin]
- inhibition at 10 µM: -3.55%

SMILES: C=CCc1ccc(O)c(-c2ccc(O)c(CC=C)c2)c1 [Honokiol]
- inhibition at 10 µM: -2.26%

SMILES: CN(C)CCc1ccc(O)cc1 [Hordenine]
- inhibition at 10 µM: -0.889%
